Measured values as given in US20130029962A1, “Substituted Heteroaromatic Pyrazole-Containing Carboxamide and Urea Compounds as Vanilloid Receptor Ligands” (Gruenenthal GmbH, priority 2011, published 2013).

Each compound was assayed against T1, vanilloid receptor 1 (VR1/TRPV1 receptor) (Homo sapiens, UniProt Q8NER1) (assay: Functional testing on the vanilloid receptor 1 (VR1/TRPV1): FLIPR Ca2+ influx assay, displacement of capsaicin). Settings: 5 μM compound; capsaicin (Cap); human being.
T1 construct: expressed in transfected cells; host or cells: CHO K1
T1 sequence (Q8NER1 whole entry): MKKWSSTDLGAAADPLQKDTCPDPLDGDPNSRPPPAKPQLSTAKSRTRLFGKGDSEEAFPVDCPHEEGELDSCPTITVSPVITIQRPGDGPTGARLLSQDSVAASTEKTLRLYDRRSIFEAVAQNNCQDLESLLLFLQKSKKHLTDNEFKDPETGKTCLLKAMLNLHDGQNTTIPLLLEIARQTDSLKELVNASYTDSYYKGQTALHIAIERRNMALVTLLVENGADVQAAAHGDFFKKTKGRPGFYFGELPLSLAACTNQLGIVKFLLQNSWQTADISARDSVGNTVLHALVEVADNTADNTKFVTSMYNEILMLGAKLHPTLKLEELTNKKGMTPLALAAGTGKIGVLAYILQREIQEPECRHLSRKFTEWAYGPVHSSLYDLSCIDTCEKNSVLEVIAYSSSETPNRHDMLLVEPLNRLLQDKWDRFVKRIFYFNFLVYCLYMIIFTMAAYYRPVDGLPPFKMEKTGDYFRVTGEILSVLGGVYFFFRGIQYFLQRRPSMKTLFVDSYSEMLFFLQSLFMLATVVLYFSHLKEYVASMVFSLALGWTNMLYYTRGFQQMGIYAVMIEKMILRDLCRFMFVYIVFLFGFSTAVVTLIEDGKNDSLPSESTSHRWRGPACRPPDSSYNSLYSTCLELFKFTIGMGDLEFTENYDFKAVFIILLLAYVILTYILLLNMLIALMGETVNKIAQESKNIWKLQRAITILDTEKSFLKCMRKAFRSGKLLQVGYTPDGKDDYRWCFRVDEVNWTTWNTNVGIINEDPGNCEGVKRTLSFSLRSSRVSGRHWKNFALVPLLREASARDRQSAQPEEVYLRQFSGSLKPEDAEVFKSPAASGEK
Format: cell-based, human being
Design: key to mode of action at VR1/TRPV1 (AG, pAG, NE), Cap: AG=agonist; NE=no effect; pAG=partial agonist
Method in brief: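 Fluo-4 FLIPR Ca2+ influx in CHO K1 cells transfected with human VR1, measuring displacement of 100 nM capsaicin; rat VR1 agonism/antagonism also assessed in rat dorsal root ganglion neurons cultured 2–3 days at 37° C with 25 ng/mL NGF, then loaded with 2 μM Fluo-4.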

SMILES | inhibition (as a percentage) at the concentration after @, Cap [%@5 μM]
CC(C(=O)NCc1cc(C(F)(F)F)nn1-c1cccc(Cl)c1)c1ccc(C(=O)Nc2ccccc2)nc1 (stereo not drawn) [Example 57] | 60

Same assay, conditions: 5 μM compound; capsaicin (Cap); human being; read-out: inhibition (as a percentage) at the concentration after @, Cap

SMILES | inhibition at 5 µM [%]
CC(C(=O)NCc1cc(C(C)(C)C)nn1-c1cccc(Cl)c1)c1ccc(C(N)=O)nc1 (stereo not drawn) [Example 56, 5-(1-((3-tert-butyl-1-(3-chlorophenyl)-1H-pyrazol-5-yl)methylamino)-1-oxopropan-2-yl)picolinamide] | 77
CC(C(=O)NCc1cc(C(F)(F)F)nn1-c1cccc(Cl)c1)c1cnc(C(=O)Nc2ccccc2)nc1 (stereo not drawn) [Example 62, 5-(1-((1-(3-chlorophenyl)-3-(trifluoromethyl)-1H-pyrazol-5-yl)methylamino)-1-oxopropan-2-yl)-N-phenylpyrimidine-2-carboxamide] | 53

Same assay, conditions: capsaicin (Cap) as stimulus; Ki from IC50 by Cheng-Prusoff; read-out: (f) Ki (human being) [nM] Cap

SMILES | Ki [nM]
COc1ccc(-n2nc(C(F)(F)F)cc2CNC(=O)Nc2ccc(NCCO)nc2)cc1C [Example 157, 1-(6-(2-hydroxyethylamino)pyridin-3-yl)-3-((1-(4-methoxy-3-methylphenyl)-3-(trifluoromethyl)-1H-pyrazol-5-yl)methyl)urea] | 112
CC(C(=O)NCc1cc(C(C)(C)C)nn1-c1cccc(Cl)c1)c1cnc(C(=O)Nc2ccc(C(F)(F)F)cc2)nc1 (stereo not drawn) [Example 67, 5-(1-((3-tert-butyl-1-(3-chlorophenyl)-1H-pyrazol-5-yl)methylamino)-1-oxopropan-2-yl)-N-(4-(trifluoromethyl)phenyl)pyrimidine-2-carboxamide] | 13
Cc1cc(-n2nc(C(F)(F)F)cc2CNC(=O)Nc2ccc(NCCO)nc2)ccc1F [Example 158, 1-((1-(4-fluoro-3-methylphenyl)-3-(trifluoromethyl)-1H-pyrazol-5-yl)methyl)-3-(6-(2-hydroxyethylamino)pyridin-3-yl)urea] | 77
CC(C)(C)c1cc(CNC(=O)Nc2ccc(N3CC[C@H](O)C3)nc2)n(-c2cccc(Cl)c2)n1 [Example 127, (S)-1-((3-tert-butyl-1-(3-chlorophenyl)-1H-pyrazol-5-yl)methyl)-3-(6-(3-hydroxypyrrolidin-1-yl)pyridin-3-yl)urea] | 61
Cc1cccc(-n2nc(C(F)(F)F)cc2CNC(=O)Nc2ccc(NCCO)nc2)c1 [Example 81, 1-(6-(2-hydroxyethylamino)pyridin-3-yl)-3-((1-m-tolyl-3-(trifluoromethyl)-1H-pyrazol-5-yl)methyl)urea] | 12
COc1cccc(-n2nc(C(C)(C)C)cc2CNC(=O)Nc2ccc(CCO)nc2)c1 [Example 153, 1-((3-tert-butyl-1-(3-methoxyphenyl)-1H-pyrazol-5-yl)methyl)-3-(6-(2-hydroxyethyl)pyridin-3-yl)urea] | 50
CC(C)(C)c1cc(CNC(=O)Nc2ccc(N3CC(O)C3)nc2)n(-c2cccc(Cl)c2)n1 [Example 117, 1-((3-tert-butyl-1-(3-chlorophenyl)-1H-pyrazol-5-yl)methyl)-3-(6-(3-hydroxyazetidin-1-yl)pyridin-3-yl)urea] | 18
CC(C(=O)NCc1cc(C(F)(F)F)nn1-c1cccc(F)c1)c1ccc(NS(C)(=O)=O)nc1 (stereo not drawn) [Example 100, N-((1-(3-fluorophenyl)-3-(trifluoromethyl)-1H-pyrazol-5-yl)methyl)-2-(6-(methylsulfonamido)pyridin-3-yl)propanamide] | 37
CC(C(=O)NCc1cc(C(F)(F)F)nn1-c1cccc(Cl)c1)c1cnc(C(=O)Nc2ccc(C(F)(F)F)cc2)nc1 (stereo not drawn) [Example 64, 5-(1-((1-(3-chlorophenyl)-3-(trifluoromethyl)-1H-pyrazol-5-yl)methylamino)-1-oxopropan-2-yl)-N-(4-(trifluoromethyl)phenyl)pyrimidine-2-carboxamide] | 61
CC(C(=O)NCc1cc(C(F)(F)F)nn1-c1cccc(Cl)c1)c1ccc(CNS(C)(=O)=O)nc1 (stereo not drawn) [Example 27, N-((1-(3-chlorophenyl)-3-(trifluoromethyl)-1H-pyrazol-5-yl)methyl)-2-(6-(methylsulfonamidomethyl)pyridin-3-yl)propanamide] | 61

Same assay, conditions: capsaicin (Cap); human being

SMILES | mode of action at VR1/TRPV1 (AG, pAG, NE), Cap
CC(C)(C)c1cc(CNC(=O)Cc2cnccn2)n(-c2cccc(Cl)c2)n1 [Example 14, 1N-((3-tert-butyl-1-(3-chlorophenyl)-1H-pyrazol-5-yl)methyl)-2-(pyrazin-2-yl)acetamide] | pAG
CC(C(=O)NCc1cc(C(C)(C)C)nn1-c1cccc(Cl)c1)c1ccc(C(N)=O)nc1 (stereo not drawn) [Example 56, 5-(1-((3-tert-butyl-1-(3-chlorophenyl)-1H-pyrazol-5-yl)methylamino)-1-oxopropan-2-yl)picolinamide] | AG
